System: HT-29 tumor
Test: SPECT/CT imaging using [^111In]ITDA1
Format: in vivo
Details: HT-29 cancer-bearing mouse, 24 hours from administration
Description: HT-29 cells (5×10^6 cells/mouse) and MDA-MB-231 cells (5×10^6 cells/mouse) were subcutaneously inoculated into the left shoulders of 5-week old male BALB/c nude mice, respectively. A saline solution (150 μL) in which [^111In]ITDA1 (23.8 to 26.2 MBq) had been dissolved was administered to each of the cancer-bearing mice via the tail vein. Each of the mice was subjected to SPECT/CT imaging after the lapse of 1, 4, 8, and 24 hours from the administration. U-SPECT-II/CT (single-pinhole collimator 0.6 or 1.0 mm, resolution: 0.45 mm) manufactured by Milab was used as the SPECT/CT device, and data were collected for 60 minutes in 1, 4, 8, and 24 hours from the administration.
The collected data were reconstructed by a three-dimensional ordered-subset expectation maximization (3D-OSEM) method. The results of HT-29 cancer-bearing mouse are shown in FIG. 6A, and the results of MDA-MB-231 cancer-bearing mouse are shown in FIG. 6B.

## NS(=O)(=O)c1nn2cc(-c3ccc(NC(=O)CN4CCN(CC(=O)O)CCN(CC(=O)O)CCN(CC(=O)O)CC4)cc3)nc2s1.[111In+3] [[^111In]ITDA1, [^111In]indium(III)2,2′,2″-(10-(2-oxo-2-((4-(2-sulfamoylimidazo[2,1-b][1,3,4]thiadiazol-6-yl)phenyl)amino)ethyl)-1,4,7,10-tetraazacyclododecan-1,4,7-triyl) triacetic acid]
  Accumulation of radioactivity in the transplanted tumor (SPECT/CT): highly observed
